Source: patent US20240059671A1, “TYROSINE KINASE 2 (TYK2) DEGRADATION COMPOUNDS AND METHODS OF USE” (CULLGEN (SHANGHAI), INC., priority 2020, published 2024)

Target: TYK2 (Homo sapiens, UniProt P29597)
Assay: TYK2 protein degradation in NOMO-1 cells by immunoblotting
Type: cell-based
Design: endogenous in cells
Settings: NOMO-1 cells
Summary of the method: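 NOMO-1 cells in RPMI 1640 with 10% FBS were exposed to compound at 0.1–1000 nM for 16 hours. TYK2 levels in RIPA lysates were measured by SDS-PAGE immunoblot with chemiluminescent detection and band densitometry.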

Sequence of TYK2 (P29597 whole entry): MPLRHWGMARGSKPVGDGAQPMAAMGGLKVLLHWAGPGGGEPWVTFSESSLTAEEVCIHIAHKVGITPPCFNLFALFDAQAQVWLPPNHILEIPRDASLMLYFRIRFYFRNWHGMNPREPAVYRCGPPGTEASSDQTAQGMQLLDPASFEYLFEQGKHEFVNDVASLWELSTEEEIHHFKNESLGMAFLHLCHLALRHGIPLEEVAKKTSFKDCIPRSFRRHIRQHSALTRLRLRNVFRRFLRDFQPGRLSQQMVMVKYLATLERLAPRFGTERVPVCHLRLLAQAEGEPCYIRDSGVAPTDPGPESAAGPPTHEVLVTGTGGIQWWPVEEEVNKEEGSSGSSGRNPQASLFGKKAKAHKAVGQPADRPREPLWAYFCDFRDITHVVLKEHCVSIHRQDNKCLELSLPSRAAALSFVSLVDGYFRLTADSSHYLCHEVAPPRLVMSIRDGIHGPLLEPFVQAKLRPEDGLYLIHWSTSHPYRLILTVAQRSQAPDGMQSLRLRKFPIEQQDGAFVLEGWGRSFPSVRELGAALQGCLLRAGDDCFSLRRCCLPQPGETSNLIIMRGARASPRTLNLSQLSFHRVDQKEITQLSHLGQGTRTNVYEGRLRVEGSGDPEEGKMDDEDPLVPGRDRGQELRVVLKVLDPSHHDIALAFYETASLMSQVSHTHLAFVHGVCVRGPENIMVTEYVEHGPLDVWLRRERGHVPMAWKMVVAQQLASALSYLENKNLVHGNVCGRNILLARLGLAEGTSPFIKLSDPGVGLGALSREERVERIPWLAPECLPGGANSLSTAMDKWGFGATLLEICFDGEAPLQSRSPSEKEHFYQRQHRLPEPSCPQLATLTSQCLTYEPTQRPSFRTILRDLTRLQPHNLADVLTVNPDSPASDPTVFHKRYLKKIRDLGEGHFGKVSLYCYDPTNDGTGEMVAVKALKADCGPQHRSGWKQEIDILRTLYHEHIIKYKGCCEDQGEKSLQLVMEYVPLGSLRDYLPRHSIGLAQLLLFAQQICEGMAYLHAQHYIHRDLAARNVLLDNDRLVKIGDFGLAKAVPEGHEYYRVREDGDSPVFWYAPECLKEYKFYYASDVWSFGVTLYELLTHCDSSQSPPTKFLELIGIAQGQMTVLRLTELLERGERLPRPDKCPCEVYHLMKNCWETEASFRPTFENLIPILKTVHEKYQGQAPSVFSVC

Row | Compound | TYK2 Degradation (NOMO-1, 10 nM) | TYK2 Degradation (NOMO-1, 100 nM)
1 | CNC(=O)c1nnc(Nc2ccc(C(=O)NCCCCCCCC(=O)N[C@H](C(=O)N3C[C@H](O)C[C@H]3C(=O)N[C@@H](C)c3ccc(-c4scnc4C)cc3)C(C)(C)C)cn2)cc1Nc1cccc(-c2ncn(C)n2)c1OC [CPD-143, 6-((5-((8-(((S)-1-((2S,4R)-4-hydroxy-2-(((S)-1-(4-(4-methylthiazol-5-yl)phenyl)ethyl)carbamoyl)pyrrolidin-1-yl)-3,3-dimethyl-1-oxobutan-2-yl)amino)-8-oxooctyl)carbamoyl)pyridin-2-yl)amino)-4-((2-methoxy-3-(1-methyl-1H-1,2,4-triazol-3-yl)phenyl)amino)-N-methylpyridazine-3-carboxamide] | A (A: ≥60% TYK2 degradation) | A (A: ≥60% TYK2 degradation)
2 | CNC(=O)c1nnc(Nc2ccc(C(=O)NCCCCCCCCC(=O)N[C@H](C(=O)N3C[C@H](O)C[C@H]3C(=O)N[C@@H](C)c3ccc(-c4scnc4C)cc3)C(C)(C)C)cn2)cc1Nc1cccc(-c2ncn(C)n2)c1OC [CPD-144, 6-((5-((9-(((S)-1-((2S,4R)-4-hydroxy-2-(((S)-1-(4-(4-methylthiazol-5-yl)phenyl)ethyl)carbamoyl)pyrrolidin-1-yl)-3,3-dimethyl-1-oxobutan-2-yl)amino)-9-oxononyl)carbamoyl)pyridin-2-yl)amino)-4-((2-methoxy-3-(1-methyl-1H-1,2,4-triazol-3-yl)phenyl)amino)-N-methylpyridazine-3-carboxamide] | A (A: ≥60% TYK2 degradation) | A (A: ≥60% TYK2 degradation)
3 | CNC(=O)c1nnc(Nc2ccc(N3CCN(C4CCN(C(=O)CCC(=O)N[C@H](C(=O)N5C[C@H](O)C[C@H]5C(=O)N[C@@H](C)c5ccc(-c6scnc6C)cc5)C(C)(C)C)CC4)CC3)cn2)cc1Nc1cccc(-c2ncn(C)n2)c1OC [CPD-145, 6-((5-(4-(1-(4-(((S)-1-((2S,4R)-4-Hydroxy-2-(((S)-1-(4-(4-methylthiazol-5-yl)phenyl)ethyl)carbamoyl)pyrrolidin-1-yl)-3,3-dimethyl-1-oxobutan-2-yl)amino)-4-oxobutanoyl)piperidin-4-yl)piperazin-1-yl)pyridin-2-yl)amino)-4-((2-methoxy-3-(1-methyl-1H-1,2,4-triazol-3-yl)phenyl)amino)-N-methylpyridazine-3-carboxamide] | – | B (B: <60% TYK2 degradation, and >20% TYK2 degradation)
4 | CNC(=O)c1nnc(Nc2ccc(N3CCN(C4CCN(C(=O)CCCC(=O)N[C@H](C(=O)N5C[C@H](O)C[C@H]5C(=O)N[C@@H](C)c5ccc(-c6scnc6C)cc5)C(C)(C)C)CC4)CC3)cn2)cc1Nc1cccc(-c2ncn(C)n2)c1OC [CPD-146, 6-((5-(4-(1-(5-(((S)-1-((2S,4R)-4-Hydroxy-2-(((S)-1-(4-(4-methylthiazol-5-yl)phenyl)ethyl)carbamoyl)pyrrolidin-1-yl)-3,3-dimethyl-1-oxobutan-2-yl)amino)-5-oxopentanoyl)piperidin-4-yl)piperazin-1-yl)pyridin-2-yl)amino)-4-((2-methoxy-3-(1-methyl-1H-1,2,4-triazol-3-yl)phenyl)amino)-N-methylpyridazine-3-carboxamide] | B (B: <60% TYK2 degradation, and >20% TYK2 degradation) | A (A: ≥60% TYK2 degradation)
5 | CNC(=O)c1nnc(Nc2ccc(N3CCN(C4CCN(C(=O)CCCCC(=O)N[C@H](C(=O)N5C[C@H](O)C[C@H]5C(=O)N[C@@H](C)c5ccc(-c6scnc6C)cc5)C(C)(C)C)CC4)CC3)cn2)cc1Nc1cccc(-c2ncn(C)n2)c1OC [CPD-147, 6-((5-(4-(1-(6-(((S)-1-((2S,4R)-4-Hydroxy-2-(((S)-1-(4-(4-methylthiazol-5-yl)phenyl)ethyl)carbamoyl)pyrrolidin-1-yl)-3,3-dimethyl-1-oxobutan-2-yl)amino)-6-oxohexanoyl)piperidin-4-yl)piperazin-1-yl)pyridin-2-yl)amino)-4-((2-methoxy-3-(1-methyl-1H-1,2,4-triazol-3-yl)phenyl)amino)-N-methylpyridazine-3-carboxamide] | B (B: <60% TYK2 degradation, and >20% TYK2 degradation) | A (A: ≥60% TYK2 degradation)
6 | CNC(=O)c1nnc(Nc2ccc(N3CCN(C4CCN(C(=O)CCCCCC(=O)N[C@H](C(=O)N5C[C@H](O)C[C@H]5C(=O)N[C@@H](C)c5ccc(-c6scnc6C)cc5)C(C)(C)C)CC4)CC3)cn2)cc1Nc1cccc(-c2ncn(C)n2)c1OC [CPD-148, 6-((5-(4-(1-(7-(((S)-1-((2S,4R)-4-hydroxy-2-(((S)-1-(4-(4-methylthiazol-5-yl)phenyl)ethyl)carbamoyl)pyrrolidin-1-yl)-3,3-dimethyl-1-oxobutan-2-yl)amino)-7-oxoheptanoyl)piperidin-4-yl)piperazin-1-yl)pyridin-2-yl)amino)-4-((2-methoxy-3-(1-methyl-1H-1,2,4-triazol-3-yl)phenyl)amino)-N-methylpyridazine-3-carboxamide] | A (A: ≥60% TYK2 degradation) | A (A: ≥60% TYK2 degradation)
7 | CNC(=O)c1nnc(Nc2ccc(N3CCN(C4CCN(C(=O)CCCCCCC(=O)N[C@H](C(=O)N5C[C@H](O)C[C@H]5C(=O)N[C@@H](C)c5ccc(-c6scnc6C)cc5)C(C)(C)C)CC4)CC3)cn2)cc1Nc1cccc(-c2ncn(C)n2)c1OC [CPD-149, 6-((5-(4-(1-(8-(((S)-1-((2S,4R)-4-Hydroxy-2-(((S)-1-(4-(4-methylthiazol-5-yl)phenyl)ethyl)carbamoyl)pyrrolidin-1-yl)-3,3-dimethyl-1-oxobutan-2-yl)amino)-8-oxooctanoyl)piperidin-4-yl)piperazin-1-yl)pyridin-2-yl)amino)-4-((2-methoxy-3-(1-methyl-1H-1,2,4-triazol-3-yl)phenyl)amino)-N-methylpyridazine-3-carboxamide] | – | A (A: ≥60% TYK2 degradation)
8 | CNC(=O)c1nnc(Nc2ccc(C(=O)NCCCCNc3cccc4c3C(=O)N(C3CCC(=O)NC3=O)C4=O)cn2)cc1Nc1cccc(-c2ncn(C)n2)c1OC (centres unmarked) [CPD-154, 6-((5-((4-((2-(2,6-Dioxopiperidin-3-yl)-1,3-dioxoisoindolin-4-yl)amino)butyl)carbamoyl)pyridin-2-yl)amino)-4-((2-methoxy-3-(1-methyl-1H-1,2,4-triazol-3-yl)phenyl)amino)-N-methylpyridazine-3-carboxamide] | – | B (B: <60% TYK2 degradation, and >20% TYK2 degradation)
9 | CNC(=O)c1nnc(Nc2ccc(C(=O)NCCCCCCNc3cccc4c3C(=O)N(C3CCC(=O)NC3=O)C4=O)cn2)cc1Nc1cccc(-c2ncn(C)n2)c1OC (centres unmarked) [CPD-156, 6-((5-((6-((2-(2,6-Dioxopiperidin-3-yl)-1,3-dioxoisoindolin-4-yl)amino)hexyl)carbamoyl)pyridin-2-yl)amino)-4-((2-methoxy-3-(1-methyl-1H-1,2,4-triazol-3-yl)phenyl)amino)-N-methylpyridazine-3-carboxamide] | – | B (B: <60% TYK2 degradation, and >20% TYK2 degradation)

Now from value to compound:

Row | TYK2 Degradation (NOMO-1, 10 nM) | TYK2 Degradation (NOMO-1, 100 nM) | Compound
10 | A (A: ≥60% TYK2 degradation) | A (A: ≥60% TYK2 degradation) | CNC(=O)c1nnc(Nc2ccc(N3CCN(C4CCN(C(=O)CCCCCCCC(=O)N[C@H](C(=O)N5C[C@H](O)C[C@H]5C(=O)N[C@@H](C)c5ccc(-c6scnc6C)cc5)C(C)(C)C)CC4)CC3)cn2)cc1Nc1cccc(-c2ncn(C)n2)c1OC [CPD-150, 6-((5-(4-(1-(9-(((S)-1-((2S,4R)-4-hydroxy-2-(((S)-1-(4-(4-methylthiazol-5-yl)phenyl)ethyl)carbamoyl)pyrrolidin-1-yl)-3,3-dimethyl-1-oxobutan-2-yl)amino)-9-oxononanoyl)piperidin-4-yl)piperazin-1-yl)pyridin-2-yl)amino)-4-((2-methoxy-3-(1-methyl-1H-1,2,4-triazol-3-yl)phenyl)amino)-N-methylpyridazine-3-carboxamide]
11 | A (A: ≥60% TYK2 degradation) | A (A: ≥60% TYK2 degradation) | CNC(=O)c1nnc(Nc2ccc(N3CCN(C4CCN(C(=O)CCCCCCCCC(=O)N[C@H](C(=O)N5C[C@H](O)C[C@H]5C(=O)N[C@@H](C)c5ccc(-c6scnc6C)cc5)C(C)(C)C)CC4)CC3)cn2)cc1Nc1cccc(-c2ncn(C)n2)c1OC [CPD-151, 6-((5-(4-(1-(10-(((S)-1-((2S,4R)-4-hydroxy-2-(((S)-1-(4-(4-methylthiazol-5-yl)phenyl)ethyl)carbamoyl)pyrrolidin-1-yl)-3,3-dimethyl-1-oxobutan-2-yl)amino)-10-oxodecanoyl)piperidin-4-yl)piperazin-1-yl)pyridin-2-yl)amino)-4-((2-methoxy-3-(1-methyl-1H-1,2,4-triazol-3-yl)phenyl)amino)-N-methylpyridazine-3-carboxamide]
12 | – | A (A: ≥60% TYK2 degradation) | CNC(=O)c1nnc(Nc2ccc(C(=O)NCCNc3cccc4c3C(=O)N(C3CCC(=O)NC3=O)C4=O)cn2)cc1Nc1cccc(-c2ncn(C)n2)c1OC (centres unmarked) [CPD-152, 6-((5-((2-((2-(2,6-Dioxopiperidin-3-yl)-1,3-dioxoisoindolin-4-yl)amino)ethyl)carbamoyl)pyridin-2-yl)amino)-4-((2-methoxy-3-(1-methyl-1H-1,2,4-triazol-3-yl)phenyl)amino)-N-methylpyridazine-3-carboxamide]
13 | – | C (C: ≤20% TYK2 degradation) | CNC(=O)c1nnc(Nc2ccc(C(=O)NCCCNc3cccc4c3C(=O)N(C3CCC(=O)NC3=O)C4=O)cn2)cc1Nc1cccc(-c2ncn(C)n2)c1OC (centres unmarked) [CPD-153, 6-((5-((3-((2-(2,6-Dioxopiperidin-3-yl)-1,3-dioxoisoindolin-4-yl)amino)propyl)carbamoyl)pyridin-2-yl)amino)-4-((2-methoxy-3-(1-methyl-1H-1,2,4-triazol-3-yl)phenyl)amino)-N-methylpyridazine-3-carboxamide]
